# Measured values: patent US5691338A, “1,2-dithiole-3 thiones for the treatment of reverse transcriptase-dependent viral infections” (priority 1995, dated 1997)
# Where two headings read alike, the source gives them in different places.
# Tests used:
# HIV-1 (HTLVIIIB) = assay: microbe, parasite or virus in culture; details: for synergy in inhibiting HIV-1 replication: p24 release / IFA, H9 cells, high viral inhibition
# Protocol: The effects for test compounds were assessed by means of both IFA and p24 release. In general, the following protocol was followed: H9 cells were infected with HIV-1 at 1000 50% infective doses of viruses/10^6 cells. Virus was allowed to adsorb for 1 h, after which unadsorbed virus was removed by centrifugation. The cells were resuspended and washed twice with PBS (without Ca^+2 or Mg^+2 salts) and centrifuged to collect the cell pellet (150×g×10 min). Cells were suspended in fresh medium and added at a final cell density of 500,000 cells/ml in a 96-well plate with media containing 0.1% DMSO and various concentrations of test compounds. The cells were re-fed freshly prepared media containing 0.1% DMSO±test compounds on day four (for preinduction experiments, cells were exposed to inducers on days -2, 0, and +4 days relative to infection). After seven days, cells were examined for cytoxicity by trypan blue exclusion, the degree of infection with HIV-1 by IFA, and the supernatants were assayed for p24 levels according to the manufacturer's directions. The IFA procedure can be summarized as follows: The cells were washed twice in PBS and were placed in 5 mm 12-well slides. After allowing the slides to dry and fixing the cells with acetone for 5 min, 10 μl of HIV-1 positive serum in 40 μl PBS was added to each well and allowed to incubate at 37° C. for 30 min. After incubation, the slides were washed twice with PBS and incubated at 37° C. for 30 min with 2.5 μl goat anti-human IgG-fluorescein isothiocyanate conjugate in 50 μl PBS containing 0.01% Evans Blue per well. The slides were then washed twice with PBS, dried, and mounted with 50% glycerol in PBS, and scored for the percentage of fluorescent cells by fluorescent microscopy.
# Statistical significance for GSH and QR levels were established by the unpaired t test using the INSTAT statistics program (Graphpad, San Diego, Calif.). The Ki of oltipraz was determined by performing Segal transformations (26) of Dixon plots. […] Calculations were performed on spreadsheets using Lotus 1-2-3 software (Cambridge, Mass.).
# [1] = biological target: T1, HIV-1 reverse transcriptase (RT) (Human immunodeficiency virus type 1 group M subtype B, UniProt P04585); assay: Inhibition of recombinant HIV-1 reverse transcriptase (TTP incorporation); type: biochemical; details: for Ki: Segal transformation of Dixon plots
# T1 construct: Recombinant HIV-1 reverse transcriptase (RT) was obtained from Worthington (Freehold, N.J.); purchased Worthington (Freehold, N.J.)
# Protocol: Reverse transcriptase assays were performed as described by Flexner, et al. (25) using recombinant HIV-1 RT as the source of enzyme. Dilutions and assay were carried out in 96-well "half-area" plates. The enzyme with various concentrations of test compounds were dissolved in DPBS containing 1% w/v BSA and diluted in 50 μl volumes; 10 μl aliquots in triplicate were transferred to another plate for the enzyme assay. The reactions were initiated by the addition of 25 μl/well of buffer containing 50 mM Tris.cndot.Cl (pH 8.0), 75 mM KCl, 1 mM dithiothreitol, 2 mM MgCl2, 5 μg/ml poly(A), 2.5 μg/ml oligo (dT), 10 μCi/ml ^32 p TTP with or without unlabeled TTP. […] TTP incorporation was measured by spotting 20 μl of the reaction cocktail onto DE81 paper, washing the paper with 4×5 min washes of 300 mM NaCl and 30 mM sodium citrate (pH 7.0), drying the paper, and counting the paper by liquid scintillation counting. The assays performed with oltipraz and 1,2-dithiole-3-thione contained 0.29% final concentration DMSO. This concentration of DMSO had no effect on RT activity.
# [2] = Dixon plots, listed as oltipraz
smiles,measurement,setting,value
"Cc1c(-c2cnccn2)ssc1=S [compound 11, 4-methyl-5-(2-pyrazinyl)-1,2-dithiole-3-thione]",IC50,"HIV-1 (HTLVIIIB); Human immunodeficiency virus 1, H9, read-out: IC50 as determined by p24 antigen release assays",14.8 ± 3.1 µM
same,IC50,"HIV-1 (HTLVIIIB); Human immunodeficiency virus 1, H9, read-out: median dose (p24 release)",19.4 µM
same,synergy in inhibiting HIV-1 replication,HIV-1 (HTLVIIIB); listed as Oltipraz,highly synergistic with azidothymidine (AZT)
same,synergy in inhibiting HIV-1 replication,HIV-1 (HTLVIIIB); listed as oltipraz,acts synergistically with AZT
same,type of inhibition with respect to TTP,[1]; [2],non-competitive inhibitor
same,type of inhibition with respect to poly(A):oligo(dT),[1]; [2],mixed inhibitor
same,Ki,"[1]; N=2 experiments, read-out: Ki with respect to TTP",183 ± 50 µM
same,Ki,"[1]; N=3 experiments, read-out: Ki with respect to poly(A):oligo(dT)",189 ± 29 µM
same,synergy as inhibitors of reverse transcriptase,[1]; moderate to high levels of inhibition,synergistically with AZT 5'-triphosphate
same,inhibition of recombinant HIV-1 reverse transcriptase,[1]; poly(A):oligo(dT) and TTP as substrates,inhibitor
